# Experimental data reported in US9844556B2, “Preventive/therapeutic method and preventive/therapeutic agent for complications after cataract surgery” (KOWA COMPANY, LTD., priority 2015, dated 2017).
# What was measured:
# [1] = test system: Human lens epithelial cells (HLEpiC); experiment: Inhibitory action on actin stress fiber formation (phalloidin staining, confocal microscopy); type: cell-based; settings: treated about an hour
# Method: Human lens epithelial cells (HLEpiC (ScienCell Research Laboratories)) were diluted with a medium (Epithelial Cell Medium (ScienCell Research Laboratories)), dispensed to each well of Poly-L-lysine (ScienCell Research Laboratories) coated Imaging Chamber CG at 100 μL/well (about 5000 cells/cm^2), and cultured in a carbon dioxide incubator (37° C., 5% CO2) until about 50% confluent. The medium was removed with vacuum suction and a test substance, a positive control, a comparative control, or the medium (control) at each concentration given below was added to each well at 300 μL/well:
# Test substance: Ripasudil with a concentration of 10 μM, 100 μM or 1 mM,
# Positive control: Cytochalasin D with a concentration of 2 μM,
# These were treated in a carbon dioxide incubator (37° C., 5% CO2) for about an hour, and then washed once with the medium. 4% Paraformaldehyde Phosphate Buffer Solution (Wako Pure Chemical Industries, Ltd.) (hereinafter, referred to as a fixative solution) was added at 300 μL/well, and fixation was carried out at room temperature for 2 minutes. After washing with the medium, 0.5% Triton X-100 (Roche Diagnostics K.K.) was added at 300 μL/well, and penetrated at room temperature for 2 minutes. After washing with the medium, the fixative solution was added at 300 μL/well, and fixation was carried out at room temperature for 20 minutes.
# Separately, 25 μL of 14 μM Actin-Stain™ 555 phalloidin (Cytoskeleton, Inc.) (hereinafter, referred to as Phalloidin) was added to 3475 μL of 10 mM phosphate buffered saline (Wako Pure Chemical Industries, Ltd.) to produce 100 nM Phalloidin.
# This 100 nM Phalloidin was added to each well washed with the medium at 200 μL/well, and staining was carried out at room temperature in a dark place for about 60 minutes.
# After washing with the medium, the chamber was removed, and […] Mounting Medium with DAPI (Vector Laboratories, Inc.) was dropped onto a cover glass with a few drops. A slide glass was placed thereon and this was left to stand at room temperature in a dark place for 30 minutes or more, and adhesion and nuclear staining were carried out and then observed by a confocal laser scanning microscope.
# [2] = test system: Human lens epithelial cells (HLEpiC); experiment: Reversibility of inhibition of actin stress fiber formation after removal; type: cell-based; settings: recultured about 24 hours after removal
# Method: After removal of the test substance, positive control or comparative control in Example 1, the cells were recultured for about another 24 hours, treated in accordance with the operation in Example 1, and then observed by a confocal laser scanning microscope in the same manner as in Example 1 to observe the reversibility of actin stress fibers.
# [3] = test system: HLEpiC; experiment: Determination of G-actin/F-actin ratio using G-Actin/F-Actin In Vivo Assay Kit; type: cell-based, human; settings: 2 μM, about an hour; control 1.16
# Method: HLEpiC was diluted with a medium (Epithelial Cell Medium), and dispensed to a Poly-L-lysine coated T-75 flask at about 5000 cells/cm^2, and cultured in a carbon dioxide incubator (37° C., 5% CO2) until about 50% confluent. A test substance, a positive control or the medium (control) at each concentration given below was added to each flask at 20 mL.
# (§1) Test substance: Ripasudil with a concentration of […], 100 μM or 1 mM,
# Positive control: CD with a concentration of 2 μM, and
# These were treated in a carbon dioxide incubator (37° C., 5% CO2) for about an hour.
# To 20 mL of Lysis and F-actin stabilization buffer was added 200 μL of 100 mM ATP stock solution and 200 μL of 100× Protease inhibitor cocktail stock to produce LAS2 buffer, and this was incubated in a carbon dioxide incubator (37° C.) for about 30 minutes. Warmed LAS2 buffer was added at 2.5 mL to each flask in which the medium was removed with vacuum suction.
# Next, adherent HLEpiC was completely scraped with a cell scraper and transferred with the LAS2 buffer to a conical tube, and HLEpiC was crushed with a micropipette (hereinafter, referred to as cell solution). This cell solution was incubated in a carbon dioxide incubator (37° C.) for about 10 minutes and then centrifuged for 10 minutes (2000 rpm, room temperature). The supernatant was dispensed into an ultracentrifugal tube at 1.8 mL and centrifuged for an hour with an ultracentrifuge (100,000× g, 37° C.). At this time, F-actin is precipitated and G-actin remains in the supernatant.
# The supernatant was transferred to a conical tube while being careful not to suck F-actin precipitates.
# To precipitates of each sample was added 1.8 mL of F-actin depolymerizing buffer, and this was incubated under ice-cold conditions for an hour to depolymerize actin.
# From each supernatant sample and precipitate sample, 100 μL each was put in a 1.5 mL Eppendorf tube, and 25 μL of 5×SDS sample buffer was added and stirred.
# Each sample was boiled in a boiling water bath for 5 minutes.
# Each sample was subjected to SDS-polyacrylamide gel electrophoresis, followed by Western blotting.
# Next, after treatment using a Western blotting detection reagent (ECL Select Western Blotting Detection Reagent, GE Healthcare Japan), proteins were detected using a Lumino image analyzer. The quantities of G-actin and F-actin were determined using an analysis software (ImageQuant TL, GE Healthcare Japan) and the G-actin/F-actin ratio was calculated.
# The variation in the quantity of F-actin required to form actin stress fibers was evaluated by comparison with the G-actin/F-actin ratio of untreated (Control) cells.
# [4] = test system: HLEpiC; experiment: Inhibitory action on cell migration (Oris Cell Migration plate); type: cell-based, human; settings: about 24 and 48 hours after treatment
# Method: HLEpiC was diluted with a medium (Epithelial Cell Medium) and dispensed to Poly-L-lysine coated Oris™ Cell Migration 96 well plate, to which a stopper was firmly attached, at 50 μL/well (25000 cells/well) and cultured in a carbon dioxide incubator (37° C., 5% CO2) for 24 hours. The stopper was removed, and after brief washing with the medium, a solution obtained by adding 5 μL of 10 mM Cell Tracker Green Fluorescent Probe (Lonza Walkersville, Inc.) to 4995 μL of the medium was added at 100 μL/well, and the cells were stained in a carbon dioxide incubator (37° C., 5% CO2) for about 30 minutes. After brief washing with the medium, the medium was further added and the cells were cultured in a carbon dioxide incubator (37° C., 5% CO2) for about 30 minutes.
# After brief washing with the medium, a test substance, a positive control, a comparative control or the medium (control) at each concentration given below was added at 100 μL/well.
# as §1
# Positive control: CD with a concentration of 2 μM,
# These were cultured in a carbon dioxide incubator (37° C., 5% CO2). The state of HLEpiC in the Detection Zone in each sample was observed by a confocal laser scanning microscope about 24 hours after the treatment and 48 hours after the treatment.
# [5] = test system: HLEpiC; experiment: Reversibility of inhibition of cell migration after removal; type: cell-based, human; settings: for time after removal at which Detection Zone was filled with HLEpiC: then removal
# Method: After the operation in Example 4, the test substance, the positive control, or the comparative control was removed, and after brief washing with the medium, the medium was added at 100 μL/well, and the cells were cultured in a carbon dioxide incubator (37° C., 5% CO2).
# [6] = test system: Soemmerring's ring, posterior capsule opacification (PCO); settings: cited from earlier work
# [7] = test system: myofibroblasts; settings: cited from earlier work
# [8] = test system: bovine lens cells; settings: cited from earlier work
# [9] = test system: hyalocyte-containing collagen gel; settings: cited from earlier work
structure (smiles),measurement,setting,value
"C=C1[C@@H](C)[C@H]2[C@H](Cc3ccccc3)NC(=O)[C@]23[C@H](OC(C)=O)/C=C/[C@@](C)(O)C(=O)[C@@H](C)C/C=C/[C@H]3[C@@H]1O [Cytochalasin D, reference compound]",actin stress fibers (observation),[1]; 2 μM,significantly disappear
same,reversibility of actin stress fibers,[2]; 2 μM,recovered
same,G-actin/F-actin ratio,[3],25.03
same,cell migration into Detection Zone (observation),[4]; 2 μM,inhibitory action on cell migration was further recognized
same,time after removal at which Detection Zone was filled with HLEpiC,[5]; 2 μM treatment,about 48 hours
CC1CNCCN1S(=O)(=O)c1cccc2cnccc12 (stereo not shown) [H-7],effect on posterior capsule opacification (PCO),[6],ineffective
same,resolving Soemmerring's ring,[6],effective
Cc1cncc2cccc(S(=O)(=O)N3CCCNC[C@@H]3C)c12 [H-1152],transdifferentiation and contraction of myofibroblasts induced by TGF-β,[7],inhibit the transdifferentiation and contraction
O=S(=O)(c1cccc2cnccc12)N1CCCNCC1 [HA-1077],transdifferentiation and contraction of myofibroblasts induced by TGF-β,[7],inhibit the transdifferentiation and contraction
"O=c1[nH]ccc2c(S(=O)(=O)N3CCCNCC3)cccc12 [HF, Hydroxyfasudil]",contraction induced by cytokines such as PDGF-BB and TGF-β2,[8],inhibited contraction
O=S(=O)(c1cccc2c(I)cccc12)N1CCCNCC1 [ML-7],transdifferentiation and contraction of myofibroblasts induced by TGF-β,[7],inhibit the transdifferentiation and contraction
"C[C@@H](N)[C@H]1CC[C@H](C(=O)Nc2ccncc2)CC1 [Y-27632, reference compound]",actin stress fibers (observation),[1]; 1 mM,disappear
same,reversibility of actin stress fibers,[2]; 1 mM,recovered
same,cell migration into Detection Zone (observation),[4]; 1 mM,inhibitory action on cell migration was also recognized
same,state of Detection Zone about 48 hours after removal,"[5]; 1 mM treatment, about 48 hours after removal",not filled with HLEpiC
same,time after removal at which Detection Zone was filled with HLEpiC,[5]; 1 mM treatment,116 h
same,contraction induced by cytokines such as PDGF-BB and TGF-β2,[8],inhibited contraction
same,transdifferentiation and contraction of myofibroblasts induced by TGF-β,[7],inhibit the transdifferentiation and contraction
O=S(=O)(c1cccc2cnccc12)N1CCCNCC1 [fasudil],hyalocyte-containing collagen gel contraction,[9],inhibits
